This experiment deals with fresh human Peripheral Blood Mononuclear Cells (hPBMCs). Description: Cytokine production (IFNα, IL-6, IL-1β) by hPBMCs in basal condition and after TLR-9 stimulation (ODN2216). Conditions: TLR-9-stimulated hPBMCs, 24 h; PD0325901 1 μM + ATO 2.5 μM. The class given is cell-based.

The values below come from patent US20240350538A1, “Use of an arsenic compound for treating a short or long cytokine storm in various autoimmune/inflammatory diseases in humans or animals” (priority 2020, published 2024).

Take `O=C(NOC[C@H](O)CO)c1ccc(F)c(F)c1Nc1ccc(I)cc1F` [PD0325901]: the “production of IFNα after inhibition by ATO” value is “did not restore”.
